The text below walks through data of PubChem BioAssay (NCI).

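Method: 48-hour compound exposure of cells in 96-well plates, five concentrations, linear interpolation of endpoints. GI50 is the concentration that inhibits growth by half. Definition used: TGI = concentration required for complete inhibition of growth.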

Among the test systems are HCC-2998 colon; NCI-H226 lung; NCI-H460 lung; NCI/ADR-RES ovarian; PC-3 prostate; RPMI-8226 leukemia; SF-295 CNS; SK-MEL-28 melanoma; U251 CNS; UACC-62 melanoma.
Holding throughout (assay): NCI tumour cell line growth inhibition, 48 h

In the case of `Cc1cc(=O)n2[nH]c(-c3ccc(C(C)(C)C)cc3)cc2n1`, the GI50 in the test with HCC-2998 colon is 8.59 µM; in the test with NCI-H226 lung, 5.28 µM; with NCI-H460 lung it was 3.03 µM; in the test with NCI/ADR-RES ovarian, 15.9 µM; with PC-3 prostate it was 4.13 µM; in the test with RPMI-8226 leukemia it was 3.89 µM. The GI50 is 2.47 µM with SF-295 CNS, 20.6 µM in the test on SK-MEL-28 melanoma, 3.24 µM with U251 CNS and 3.83 µM with UACC-62 melanoma. In addition, the TGI in the test on HCC-2998 colon was above 100 µM; in the test with NCI-H226 lung, above 100 µM; in the test on NCI-H460 lung it was 38 µM; in the test on NCI/ADR-RES ovarian, above 100 µM; in the test on PC-3 prostate, 40.6 µM; in the test with RPMI-8226 leukemia, 54.8 µM. Besides, the TGI in the test with SF-295 CNS is 22.7 µM; with SK-MEL-28 melanoma, above 100 µM; in the test with U251 CNS it was 64.5 µM; with UACC-62 melanoma, above 100 µM.
As to `O=C(Nc1ccc(F)cc1F)c1cc(I)ccc1O`, the GI50 is 3.73 µM with HCC-2998 colon; 2.46 µM in the test with NCI-H226 lung; 3.13 µM in the test with NCI-H460 lung; 2.92 µM in the test with NCI/ADR-RES ovarian; 2.53 µM with PC-3 prostate; 2.5 µM in the test on RPMI-8226 leukemia. In addition, the GI50 with SF-295 CNS is 1.95 µM; with SK-MEL-28 melanoma, 1.93 µM; in the test on U251 CNS it was 3.07 µM; in the test with UACC-62 melanoma it was 1.46 µM. Further, the TGI in the test with HCC-2998 colon is 47 µM; in the test on NCI-H226 lung, 15.8 µM; with NCI-H460 lung, above 100 µM; with NCI/ADR-RES ovarian it was 33.1 µM; with PC-3 prostate, 8.73 µM; with RPMI-8226 leukemia it was 8.96 µM. Moreover, the TGI in the test on SF-295 CNS is 3.94 µM; in the test with SK-MEL-28 melanoma, 6.84 µM; in the test on U251 CNS, above 100 µM; with UACC-62 melanoma it was 4.49 µM.
Consider `COc1cc(/C=C/c2cc(/C=C/c3ccc(O)c(OC)c3)n(C(=O)Nc3ccc(F)cc3)n2)ccc1O`, for which the GI50 was 2.53 µM with HCC-2998 colon; 2.62 µM in the test with NCI-H226 lung; 0.546 µM with NCI-H460 lung; 0.449 µM with NCI/ADR-RES ovarian; 0.957 µM with PC-3 prostate; 0.454 µM in the test on RPMI-8226 leukemia. Besides, the GI50 in the test with SF-295 CNS is 2.63 µM; in the test with SK-MEL-28 melanoma, 0.912 µM; with U251 CNS it was 0.769 µM; in the test on UACC-62 melanoma, 0.817 µM. For the same compound, the TGI in the test on HCC-2998 colon worked out at 10.6 µM; with NCI-H226 lung, 9.79 µM; in the test on NCI-H460 lung it was 12.4 µM; in the test with NCI/ADR-RES ovarian, 27.4 µM; with PC-3 prostate, 12.8 µM; in the test on RPMI-8226 leukemia it was 3.37 µM. In addition, the TGI in the test on SF-295 CNS is 29.7 µM; in the test with SK-MEL-28 melanoma, 7.84 µM; with U251 CNS, 10.5 µM; in the test with UACC-62 melanoma, 6.68 µM.
As to `O[C@H]1[C@H]2c3cc4c(cc3CN3CCC(=C[C@@H]1O)[C@H]23)OCO4`, the TGI worked out at 8.84 µM in the test with HCC-2998 colon; 29.6 µM in the test on NCI-H226 lung; 5.88 µM in the test with NCI-H460 lung; 10.7 µM in the test on NCI/ADR-RES ovarian; 5.34 µM in the test with PC-3 prostate; 5.03 µM with RPMI-8226 leukemia. For the same compound, the TGI in the test with SF-295 CNS is above 68.8 µM; in the test with SK-MEL-28 melanoma, 22.6 µM; in the test on U251 CNS it was above 26.7 µM; in the test on UACC-62 melanoma, 7.95 µM.
Turning to `Cc1cc(=O)[nH]c2cc3oc4ccccc4c3cc12`, the TGI in the test on HCC-2998 colon was 16.3 µM; in the test on NCI-H226 lung, above 100 µM; in the test on NCI-H460 lung, above 100 µM; with NCI/ADR-RES ovarian, above 100 µM; in the test with PC-3 prostate, above 100 µM; with RPMI-8226 leukemia, above 100 µM. The TGI in the test on SF-295 CNS was above 100 µM; in the test on SK-MEL-28 melanoma it was above 100 µM; in the test with U251 CNS, above 86.6 µM; in the test on UACC-62 melanoma, above 100 µM.
Take `CC(C)c1ccc(C(C)C(=O)N(CC2=C(C(C)c3ccccn3)c3ccccc3C2)C(C)C)cc1` (stereo not given): the GI50 in the test on HCC-2998 colon is 4.52 µM; with NCI-H226 lung, 2.68 µM; in the test with NCI-H460 lung, 2.62 µM; in the test with NCI/ADR-RES ovarian, 2.67 µM; with PC-3 prostate, 2.66 µM; in the test on RPMI-8226 leukemia it was 2.32 µM. In addition, the GI50 with SF-295 CNS was 2.3 µM; with SK-MEL-28 melanoma, 10.8 µM; with U251 CNS, 2.85 µM; in the test with UACC-62 melanoma, 8.79 µM. Also, the TGI with HCC-2998 colon was 39.1 µM; in the test on NCI-H226 lung, 21.7 µM; with NCI-H460 lung, 8.35 µM; in the test on NCI/ADR-RES ovarian it was 19.2 µM; in the test on PC-3 prostate it was above 100 µM; in the test with RPMI-8226 leukemia, 7.52 µM. In addition, the TGI was 7.65 µM with SF-295 CNS, 66.2 µM with SK-MEL-28 melanoma, 13.6 µM with U251 CNS and 37.6 µM in the test with UACC-62 melanoma.
